Experimental data: PubChem BioAssay AID248 (DTP/NCI, 2004)
Several values for one entry are separate records, joined by “and”; a condition that tells them apart may be missing. Identical values can stand only once. Inconclusive results and toxic doses are left out. Rule as the data show it: active = T/C of 150% or more; inactive = T/C below 125%.

Test system: L1210 leukemia ip in BDF1 mice, survival T/C
Test: NCI In Vivo Anticancer Drug Screen. Data for tumor model L1210 Leukemia (intraperitoneal) in B6D2F1 (BDF1) mice
Settings: endpoint: mean survival time, higher = longer survival
Procedure, shortened: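 Antitumor effect is assessed in tumor-bearing animals. Survival in the compound arm is compared with a vehicle-dosed control arm and expressed as their quotient.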

[1] = dose: 100.0 mg/kg/injection, schedule: Q04DX002 (ip), vehicle: Klucel (hydroxypropylcellulose) (HPC)
[2] = dose: 200.0 mg/kg/injection, schedule: Q04DX002 (ip), vehicle: Klucel (hydroxypropylcellulose) (HPC)
[3] = dose: 400.0 mg/kg/injection, schedule: Q04DX002 (ip), vehicle: Klucel (hydroxypropylcellulose) (HPC)
[4] = dose: 50.0 mg/kg/injection, schedule: Q01DX009 (ip), vehicle: saline with Tween-80
[5] = dose: 50.0 mg/kg/injection, schedule: Q01DX009 (ip), vehicle: Klucel (hydroxypropylcellulose) (HPC)
[6] = dose: 100.0 mg/kg/injection, schedule: Q01DX009 (ip), vehicle: Klucel (hydroxypropylcellulose) (HPC)
[7] = dose: 100.0 mg/kg/injection, schedule: Q04DX003 (ip), vehicle: saline with Tween-80
[8] = dose: 200.0 mg/kg/injection, schedule: Q01DX009 (ip), vehicle: Klucel (hydroxypropylcellulose) (HPC)
[9] = dose: 200.0 mg/kg/injection, schedule: Q04DX003 (ip), vehicle: saline with Tween-80
[10] = dose: 100.0 mg/kg/injection, schedule: Q04DX003 (ip), vehicle: saline
[11] = dose: 200.0 mg/kg/injection, schedule: Q04DX003 (ip), vehicle: saline
[12] = dose: 25.0 mg/kg/injection, schedule: Q01DX009 (ip), vehicle: Klucel (hydroxypropylcellulose) (HPC)
[13] = dose: 100.0 mg/kg/injection, schedule: Q04DX003 (ip), vehicle: Klucel (hydroxypropylcellulose) (HPC)
[14] = dose: 200.0 mg/kg/injection, schedule: Q04DX003 (ip), vehicle: Klucel (hydroxypropylcellulose) (HPC)
[15] = dose: 400.0 mg/kg/injection, schedule: Q04DX003 (ip), vehicle: Klucel (hydroxypropylcellulose) (HPC)
[16] = dose: 25.0 mg/kg/injection, schedule: Q04DX003 (ip), vehicle: Klucel (hydroxypropylcellulose) (HPC)
[17] = dose: 50.0 mg/kg/injection, schedule: Q04DX003 (ip), vehicle: Klucel (hydroxypropylcellulose) (HPC)

Measured: T/C

COc1cc(C)ccc1OC(=O)Nc1ccccc1
inactive: [1] 109 % of control | [2] 113 % of control | [3] 106 % of control

C1CCC(C2CCC(N3CCCCC3)CC2)CC1 (centres undefined)
inactive: dose: 12.5 mg/kg/injection, schedule: Q01DX001 (ip), vehicle: saline 106 % of control | dose: 25.0 mg/kg/injection, schedule: Q01DX001 (ip), vehicle: saline 101 % of control | dose: 50.0 mg/kg/injection, schedule: Q01DX001 (ip), vehicle: saline 101 % of control

Nc1ccccc1SC1CC(=O)N(c2ccc(Oc3ccc(Cl)cc3)cc2)C1=O (centres undefined)
inactive: dose: 75.0 mg/kg/injection, schedule: Q01DX009 (ip), vehicle: Klucel (hydroxypropylcellulose) (HPC) 87 % of control | dose: 150.0 mg/kg/injection, schedule: Q01DX009 (ip), vehicle: Klucel (hydroxypropylcellulose) (HPC) 98 % of control | dose: 300.0 mg/kg/injection, schedule: Q01DX009 (ip), vehicle: Klucel (hydroxypropylcellulose) (HPC) 92 % of control

O=C(O)C(O)C(O)C(O)CO.[Zn+2] (centres undefined)
inactive: dose: 6.25 mg/kg/injection, schedule: Q01DX009 (ip), vehicle: saline with Tween-80 95 % of control | dose: 6.25 mg/kg/injection, schedule: Q04DX002 (ip), vehicle: saline with Tween-80 124 % of control | dose: 12.5 mg/kg/injection, schedule: Q01DX009 (ip), vehicle: saline with Tween-80 105 % of control and 100 % of control | dose: 12.5 mg/kg/injection, schedule: Q04DX002 (ip), vehicle: saline with Tween-80 109 % of control | dose: 25.0 mg/kg/injection, schedule: Q01DX009 (ip), vehicle: saline with Tween-80 91 % of control | dose: 25.0 mg/kg/injection, schedule: Q04DX002 (ip), vehicle: saline with Tween-80 95 % of control | [4] 91 % of control

CCCCCCC1CCC(CCCCCCCC(=O)N2CCN(C)CC2)C(C/C=C/CCCCCCCC(=O)N2CCN(C)CC2)C1CCCCC (centres undefined)
inactive: dose: 75.0 mg/kg/injection, schedule: Q01DX001 (ip), vehicle: saline 94 % of control | dose: 150.0 mg/kg/injection, schedule: Q01DX001 (ip), vehicle: saline 103 % of control | dose: 300.0 mg/kg/injection, schedule: Q01DX001 (ip), vehicle: saline 95 % of control

CCNC(=S)N(CC)CC
inactive: [5] 104 % of control | [6] 102 % of control | [7] 100 % of control | [8] 114 % of control | [9] 103 % of control

CC1C(=O)OC2CC[N+]3(CC(=O)c4ccc(Br)cc4)CC=C(COC(=O)C(C)(O)C1(C)O)C23 (centres undefined)
inactive: [10] 104 % of control | [11] 102 % of control | dose: 400.0 mg/kg/injection, schedule: Q04DX003 (ip), vehicle: saline 87 % of control

CCOC(=O)Nc1cccc(C)c1C
inactive: [6] 100 % of control | [8] 107 % of control | dose: 400.0 mg/kg/injection, schedule: Q01DX009 (ip), vehicle: Klucel (hydroxypropylcellulose) (HPC) 104 % of control

CCOC(=O)c1cc(Cl)cc(Cl)c1N=NN(C)C
inactive: [4] 102 % of control | dose: 200.0 mg/kg/injection, schedule: Q01DX009 (ip), vehicle: saline with Tween-80 102 % of control

CC1C(=O)CC(=O)C1=O (centres undefined)
inactive: dose: 50.0 mg/kg/injection, schedule: Q01DX009 (ip), vehicle: saline sonified 104 % of control | dose: 100.0 mg/kg/injection, schedule: Q01DX009 (ip), vehicle: saline sonified 117 % of control | [10] 100 % of control | dose: 200.0 mg/kg/injection, schedule: Q01DX009 (ip), vehicle: saline sonified 104 % of control | [11] 100 % of control

CCCCCC(=O)N1CCCCC1
inactive: [12] 93 % of control | [5] 96 % of control | [6] 94 % of control

Nc1nc(=O)n(CCCSc2ccc([N+](=O)[O-])cc2)cc1-c1ccc(Cl)c(Cl)c1
inactive: [13] 90 % of control | [14] 90 % of control | [15] 88 % of control

OC1(c2ccccc2)c2cscc2C(O)(c2ccccc2)c2c(Cl)sc(Cl)c21 (centres undefined)
inactive: dose: 100.0 mg/kg/injection, schedule: Q01DX001 (ip), vehicle: saline with Tween-80 91 % of control | dose: 400.0 mg/kg/injection, schedule: Q01DX001 (ip), vehicle: saline with Tween-80 87 % of control

CC12CCC(=O)C=C1CCC1C2C(=O)CC2(C)C1CCC2(O)C(=O)COC(=O)c1cc([N+](=O)[O-])c(N2CC2)c([N+](=O)[O-])c1 (centres undefined)
inactive: dose: 50.0 mg/kg/injection, schedule: Q01DX001 (sc), vehicle: steriod suspending solution 103 % of control | dose: 60.0 mg/kg/injection, schedule: Q01DX015 (ip), vehicle: saline 96 % of control | dose: 90.0 mg/kg/injection, schedule: Q01DX015 (ip), vehicle: saline 100 % of control | dose: 100.0 mg/kg/injection, schedule: Q01DX001 (sc), vehicle: steriod suspending solution 95 % of control | dose: 135.0 mg/kg/injection, schedule: Q01DX015 (ip), vehicle: saline 102 % of control | dose: 200.0 mg/kg/injection, schedule: Q01DX001 (sc), vehicle: steriod suspending solution 101 % of control | dose: 200.0 mg/kg/injection, schedule: Q01DX015 (ip), vehicle: saline 96 % of control | dose: 400.0 mg/kg/injection, schedule: Q01DX001 (sc), vehicle: steriod suspending solution 103 % of control

O=C(COc1ccc(Cl)cc1)Nc1cccnc1
inactive: [12] 100 % of control | [16] 100 % of control | [5] 92 % of control | [17] 94 % of control | [13] 103 % of control

Nc1ccc(-c2ccc(N)c(Oc3ccccc3)c2)cc1Oc1ccccc1
inactive: dose: 100.0 mg/kg/injection, schedule: Q01DX001 (ip), vehicle: other 92 % of control | dose: 200.0 mg/kg/injection, schedule: Q01DX001 (ip), vehicle: other 97 % of control | dose: 400.0 mg/kg/injection, schedule: Q01DX001 (ip), vehicle: other 94 % of control

NC(=O)OCc1ccccc1
inactive: dose: 50.0 mg/kg/injection, schedule: Q04DX002 (ip), vehicle: Klucel (hydroxypropylcellulose) (HPC) 98 % of control | [1] 98 % of control | [2] 94 % of control | [3] 94 % of control

CCSC(C(O)C(O)C(O)C(O)CO)n1ccc(=O)[nH]c1=O (centres undefined)
inactive: dose: 100.0 mg/kg/injection, schedule: Q01DX001 (ip), vehicle: Klucel (hydroxypropylcellulose) (HPC) 100 % of control | [13] 88 % of control | [7] 103 % of control | dose: 200.0 mg/kg/injection, schedule: Q01DX001 (ip), vehicle: Klucel (hydroxypropylcellulose) (HPC) 100 % of control | dose: 200.0 mg/kg/injection, schedule: Q01DX009 (ip), vehicle: saline 93 % of control | [14] 93 % of control | [9] 94 % of control | dose: 400.0 mg/kg/injection, schedule: Q01DX001 (ip), vehicle: Klucel (hydroxypropylcellulose) (HPC) 102 % of control | dose: 400.0 mg/kg/injection, schedule: Q01DX009 (ip), vehicle: saline 94 % of control | [15] 87 % of control | dose: 400.0 mg/kg/injection, schedule: Q04DX003 (ip), vehicle: saline with Tween-80 92 % of control

CCC(C)c1cc([N+](=O)[O-])cc([N+](=O)[O-])c1O (centres undefined)
inactive: dose: 12.5 mg/kg/injection, schedule: Q04DX003 (ip), vehicle: Klucel (hydroxypropylcellulose) (HPC) 95 % of control | [16] 98 % of control | [17] 96 % of control
